Source: patent publication US20230321086A1, “METHODS AND MATERIALS FOR INHIBITING NICOTINAMIDE PHOSPHORIBOSYLTRANSFERASE ACTIVITY” (Universiy of Pittsburgh - Of the Commonwealth System of …, priority 2020, published 2023)

target: NAMPT (Homo sapiens, UniProt P43490); test: Assay for in vitro NAMPT activity via NMN assessment; assay type: biochemical; details: read-out: A: NAMPT enzyme inhibitory activity, IC50
Procedure: The following were added to a well: 20 μL 2× test compound in Basic Buffer (0.02% BSA, 2 mM DTT, 12 mM MgCl2, 50 mM Tris pH7.5); 10 μL 8 μg/mL NAMPT, and 200 μM PRPP working solution (or PRPP working solution to background wells). 10 μL 100 μM NAM working solution was added to start the reaction. The plate was sealed and incubated for 45 minutes at 37° C. After incubation, 10 μL 20% acetophenone in DMSO, 10 μL 2N KOH, and 20 μL 88% formic acid were added. The plate was sealed and incubated for 30 minutes at 37° C. After incubation, fluorescence at Ex/Em 387/441 was read.
(§1) In each table header, A: NAMPT enzyme inhibitory activity, IC50 (μM); B: Cellular NAD inhibitory activity, IC50 (μM); and C: change in NAD levels in response to test compound, shown as % of NAD activity in the absence of test compound. […] A percentage of 100 percent would indicate no increase or decrease in NAD levels as compared to that measured for untreated control cells, while a percentage of 50 percent would indicate a decrease in NAD levels of 50 percent as compared to that measured for untreated control cells.

Chain of NAMPT (P43490 whole entry, species assumed): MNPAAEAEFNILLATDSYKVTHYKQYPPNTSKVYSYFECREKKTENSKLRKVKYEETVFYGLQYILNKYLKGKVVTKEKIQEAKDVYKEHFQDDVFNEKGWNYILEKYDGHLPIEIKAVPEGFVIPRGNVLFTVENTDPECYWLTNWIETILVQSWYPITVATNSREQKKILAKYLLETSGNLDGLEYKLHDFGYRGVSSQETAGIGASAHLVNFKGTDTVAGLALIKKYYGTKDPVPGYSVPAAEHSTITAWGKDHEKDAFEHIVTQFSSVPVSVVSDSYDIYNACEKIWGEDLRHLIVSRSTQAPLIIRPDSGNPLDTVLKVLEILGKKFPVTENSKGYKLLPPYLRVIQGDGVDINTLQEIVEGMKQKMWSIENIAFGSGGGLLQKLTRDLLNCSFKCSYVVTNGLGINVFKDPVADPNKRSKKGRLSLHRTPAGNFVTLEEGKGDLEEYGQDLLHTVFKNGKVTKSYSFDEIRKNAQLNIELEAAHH

SMILES | IC50 [µM]
O=C(NCCc1ccncc1)c1cnc2nc(-c3ccc(F)cc3)c(-c3ccc(F)cc3)nc2c1 [BC20206] | < 1
O=C1NCCCN1c1ccc2nc(-c3ccc(F)cc3)c(-c3ccc(F)cc3)nc2c1 [BC20218] | ≥ 25
O=C1N(Cc2cccnc2)CCCN1c1ccc2nc(-c3ccc(F)cc3)c(-c3ccc(F)cc3)nc2c1 [BC20219] | ≥ 25
C#CCNC(=O)c1ccc2nc(-c3cccc(NC(C)=O)c3)c(-c3cccc(NC(C)=O)c3)nc2c1 [BC20227] | ≥ 25
CN1CCN(C(=O)c2ccc3nc(-c4ccc(F)cc4)c(-c4cccc(CNS(C)(=O)=O)c4)nc3c2)CC1 [BC20231] | ≥ 25
CN1CCN(Cc2cccc(-c3nc4cc(C(=O)N5CCN(C)CC5)ccc4nc3-c3ccc(F)cc3)c2)CC1 [BC20232] | ≥ 25
CN1CCCC(NC(=O)Nc2ccc3nc(-c4ccc(F)cc4)c(-c4ccc(F)cc4)nc3c2)C1 (centres unmarked) [BC20237] | ≥ 25
CC(=O)N1CCCC(NC(=O)Nc2cnc3nc(-c4ccc(F)cc4)c(-c4ccc(F)cc4)nc3c2)C1 (centres unmarked) [BC20239] | ≥ 25
CC(=O)Nc1cccc(-c2nc3ccc(C(=O)N4CCN(C)CC4)cc3nc2-c2cccc(NC(C)=O)c2)c1 [BC20241] | ≥ 25
COCC(=O)Nc1cccc(-c2nc3ccc(C(=O)N4CCN(C)CC4)cc3nc2-c2ccc(F)cc2)c1 [BC20245] | ≥ 25
C#CCNC(=O)c1ccc2nc(-c3cccc(NS(C)(=O)=O)c3)c(-c3ccc(F)cc3)nc2c1 [BC20247] | 1 to 25
CC(=O)N1CCCC(NC(=O)NCc2ccc3nc(-c4ccc(F)cc4)c(-c4ccc(F)cc4)nc3c2)C1 (centres unmarked) [BC20252] | ≥ 25

Results, then the compound that gave them:

IC50 [µM] | SMILES
≥ 25 | O=C(NCCN1CCCC1)c1cnc2nc(-c3ccc(F)cc3)c(-c3ccc(F)cc3)nc2c1 [BC20202]
1 to 25 | O=C(NCc1cccnc1)c1cnc2nc(-c3ccc(F)cc3)c(-c3ccc(F)cc3)nc2c1 [BC20203]
≥ 25 | O=C(NCc1ccncc1)c1cnc2nc(-c3ccc(F)cc3)c(-c3ccc(F)cc3)nc2c1 [BC20204]
≥ 25 | O=C(NCc1ccccc1)Nc1cnc2nc(-c3ccc(F)cc3)c(-c3ccc(F)cc3)nc2c1 [BC20207]
≥ 25 | CC(=O)Nc1cccc(-c2nc3cc(C(=O)N4CCN(C)CC4)ccc3nc2-c2ccc(F)cc2)c1 [BC20208]
≥ 25 | COCC(=O)Nc1cccc(-c2nc3cc(C(=O)N4CCN(C)CC4)ccc3nc2-c2ccc(F)cc2)c1 [BC20209]
≥ 25 | CN1CCN(C(=O)c2ccc3nc(-c4ccc(F)cc4)c(-c4cccc(NS(C)(=O)=O)c4)nc3c2)CC1 [BC20210]
≥ 25 | C#CCNC(=O)c1ccc2nc(-c3ccc(F)cc3)c(-c3cccc(NC(=O)COC)c3)nc2c1 [BC20211]
≥ 25 | C#CCNC(=O)c1ccc2nc(-c3ccc(F)cc3)c(-c3cccc(NS(C)(=O)=O)c3)nc2c1 [BC20212]
≥ 25 | C#CCNC(=O)c1ccc2nc(-c3ccc(F)cc3)c(-c3cccc(NC(=O)CN(C)C)c3)nc2c1 [BC20214]
≥ 25 | CN(C)Cc1cccc(-c2nc3cc(C(=O)N4CCN(C)CC4)ccc3nc2-c2ccc(F)cc2)c1 [BC20215]
1 to 25 | CC(=O)N1CCCC(NC(=O)Nc2ccc3nc(-c4ccc(F)cc4)c(-c4ccc(F)cc4)nc3c2)C1 (centres unmarked) [BC20217]
≥ 25 | C#CCNC(=O)c1ccc2nc(-c3ccc(F)cc3)c(-c3cccc(CO)c3)nc2c1 [BC20220]
≥ 25 | COCC(=O)Nc1cccc(-c2nc3ccc(C(=O)N4CCN(C)CC4)cc3nc2-c2cccc(NC(=O)COC)c2)c1 [BC20221]
≥ 25 | C#CCNC(=O)c1ccc2nc(-c3ccc(F)cc3)c(-c3cccc(NC(C)=O)c3)nc2c1 [BC20222]
≥ 25 | C#CCNC(=O)c1ccc2nc(-c3ccc(F)cc3)c(-c3cccc(CN4CCCC4)c3)nc2c1 [BC20223]
≥ 25 | O=C(Nc1ccc2nc(-c3ccc(F)cc3)c(-c3ccc(F)cc3)nc2c1)NC1CCCNC1 (centres unmarked) [BC20225]

IC50 [µM] | SMILES
1 to 25 | O=C1N(Cc2ccncc2)CCCN1c1ccc2nc(-c3ccc(F)cc3)c(-c3ccc(F)cc3)nc2c1 [BC20226]
≥ 25 | C#CCNC(=O)c1ccc2nc(-c3cccc(NC(=O)COC)c3)c(-c3cccc(NC(=O)COC)c3)nc2c1 [BC20228]
≥ 25 | CN(C)CC(=O)Nc1cccc(-c2nc3cc(C(=O)N4CCN(C)CC4)ccc3nc2-c2ccc(F)cc2)c1 [BC20229]
≥ 25 | CC(=O)NCc1cccc(-c2nc3cc(C(=O)N4CCN(C)CC4)ccc3nc2-c2ccc(F)cc2)c1 [BC20230]
≥ 25 | C#CCNC(=O)c1ccc2nc(-c3ccc(F)cc3)c(-c3cccc(CN(C)C)c3)nc2c1 [BC20233]
≥ 25 | C#CCNC(=O)c1ccc2nc(-c3cccc(CN(C)C)c3)c(-c3ccc(F)cc3)nc2c1 [BC20234]
1 to 25 | O=C(NCc1cccnc1)NCc1ccc2nc(-c3ccc(F)cc3)c(-c3ccc(F)cc3)nc2c1 [BC20236]
1 to 25 | CS(=O)(=O)N1CCCC(NC(=O)Nc2ccc3nc(-c4ccc(F)cc4)c(-c4ccc(F)cc4)nc3c2)C1 (centres unmarked) [BC20238]
≥ 25 | CN1CCN(C(=O)c2ccc3nc(-c4ccc(F)cc4)c(-c4cccc(CO)c4)nc3c2)CC1 [BC20240]
≥ 25 | CN1CCN(C(=O)c2ccc3nc(-c4cccc(CN5CCCC5)c4)c(-c4cccc(CN5CCCC5)c4)nc3c2)CC1 [BC20242]
≥ 25 | CN1CCN(Cc2cccc(-c3nc4ccc(C(=O)N5CCN(C)CC5)cc4nc3-c3cccc(CN4CCN(C)CC4)c3)c2)CC1 [BC20243]
≥ 25 | C#CCNC(=O)c1ccc2nc(-c3ccc(F)cc3)c(-c3cccc(N(C)C)c3)nc2c1 [BC20244]
≥ 25 | CN1CCN(C(=O)c2ccc3nc(-c4cccc(N(C)C)c4)c(-c4ccc(F)cc4)nc3c2)CC1 [BC20246]
≥ 25 | CN1CCN(C(=O)c2ccc3nc(-c4cccc(CN5CCCC5)c4)c(-c4ccc(F)cc4)nc3c2)CC1 [BC20248]
≥ 25 | CN1CCN(Cc2cccc(-c3nc4ccc(C(=O)N5CCN(C)CC5)cc4nc3-c3ccc(F)cc3)c2)CC1 [BC20249]
≥ 25 | O=C(NCc1ccc2nc(-c3ccc(F)cc3)c(-c3ccc(F)cc3)nc2c1)NC1CCCNC1 (centres unmarked) [BC20250]
≥ 25 | CN1CCCC(NC(=O)NCc2ccc3nc(-c4ccc(F)cc4)c(-c4ccc(F)cc4)nc3c2)C1 (centres unmarked) [BC20251]

system: A431 cells; test: Assay for total NADH and NAD+ measurements in cells; assay type: cell-based; design: C: change in NAD levels in response to test compound, shown as % of NAD activity in the absence of test compound: concentration or dose not given beside the values; details: percent of NAD level of untreated control cells (100 = no change)
Procedure: 2,000 cells/well and, at the same time, test compounds dissolved in media at the desired concentration were added to each well. The treated cells were incubated overnight in C02 incubator. The cells were washed 6 times with PBS with 1 mM CaCl2) and 1 mM MgCl2. In the last wash, 10 μL of PBS with 1 mM CaCl2) and 1 mM MgCl2 per well were left in each well. Immediately thereafter, 10 μL 0.4% dodecyltrimethylammonium bromide (DTAB) in phosphate buffer pH 8.0 as added, and the plates were shaked at 1000 rpm for 5 minutes. 60 μL reaction mix was added, and fluorescence at Ex/Em 530/585 was immediately monitored. A linear increase should be achieved with 8 cycles every 92 seconds, 10 number of flashes/well/cycle. The reaction mix was prepared per the following table, respecting the amount and order in which each component was added:
All assays were performed in A431 cells. Referring to the tables below, activity: “+” ≥25 μM, “++” ≥1 μM and <25 μM, and “+++”<1 μM.
as §1

SMILES | C: change in NAD levels in response to test compound, shown as % of NAD activity in the absence of test compound [%]
O=C(NCCCN1CCOCC1)Nc1ccc2nc(-c3ccc(F)cc3)c(-c3ccc(F)cc3)nc2c1 [BC19576] | 61
CN1CCN(Cc2ccc3nc(-c4ccc(F)cc4)c(-c4ccc(F)cc4)nc3c2)CC1 [BC19577] | 41
CN1CCN(C(=O)c2ccc3nc(-c4ccc(F)cc4)c(Nc4ccc(F)cc4)nc3c2)CC1 [BC19578] | 89
CN1CCN(CCNC(=O)Nc2ccc3nc(-c4ccc(F)cc4)c(-c4ccc(F)cc4)nc3c2)CC1 [BC19616] | 31
O=C(NCCCN1CCCC1=O)Nc1ccc2nc(-c3ccc(F)cc3)c(-c3ccc(F)cc3)nc2c1 [BC19617] | 58
CNc1ncc(-c2ccc3nc(-c4ccc(F)cc4)c(-c4ccc(F)cc4)nc3c2)o1 [BC19619] | 55
CN1CCN(C(=O)C2CCc3nc(-c4ccc(F)cc4)c(-c4ccc(F)cc4)nc3C2)CC1 (centres unmarked) [BC19663] | 18
OCCCn1c(-c2ccc3nc(-c4ccc(F)cc4)c(-c4ccc(F)cc4)nc3c2)n[nH]c1=S [BC19664] | 70
OCCCn1cnnc1-c1ccc2nc(-c3ccc(F)cc3)c(-c3ccc(F)cc3)nc2c1 [BC19665] | 58
CN1CCN(C(=O)c2cc3nc(-c4ccc(F)cc4)c(-c4ccc(F)cc4)nc3cn2)CC1 [BC19666] | 70
Cn1oc(-c2ccc3nc(-c4ccc(F)cc4)c(-c4ccc(F)cc4)nc3c2)cc1=O [BC19667] | 38
C/N=C(\c1ccc2nc(-c3ccc(F)cc3)c(-c3ccc(F)cc3)nc2c1)N1CCN(C)CC1 [BC19668] | 31
CN1CCN(C(=O)C2Cc3nc(-c4ccc(F)cc4)c(-c4ccc(F)cc4)nc3C2)CC1 [BC19723] | 54
